In patent publication US8071629B2, “2-pyridinylcycloalkylcarboxamide derivatives as fungicides” (Bayer Cropscience AG, priority 2005, dated 2011):

Tested on: Sphaerotheca fuliginea
Experiment: In vivo test on Sphaerotheca fuliginea (powdery mildew)
Conditions: gherkin plants, preventive spray 24 h before contamination, dose 600 g/ha, grading 13 days after contamination vs control plants
Experimental: The active ingredients tested are prepared by homogenization in a mixture of DMSO (dimethylsulfoxide)/acetone/tween/water. This suspension is then diluted with water to obtain the desired active material concentration.
Gherkin plants (Vert petit de Paris variety) in starter cups, sown on a 50/50 peat soil-pozzolana substrate and grown at 20° C./23° C., are treated at cotyledons stage by spraying with the aqueous suspension described above. Plants, used as controls, are treated with an aqueous solution not containing the active material.
After 24 hours, the plants are contaminated by spraying them with an aqueous suspension of Sphaerotheca fuliginea spores (100 000 spores per ml). The spores are collected from a contaminated plants. The contaminated gerkhin plants are incubated at about 20° C./25° C. and at 60/70% relative humidity.
Grading (% of efficacy) is carried out 13 days after the contamination, in comparison with the control plants.

Structure (SMILES): Cn1cc(C(=O)N[C@@H]2CCCC[C@@H]2c2ncc(Cl)cc2Cl)c(C(F)F)n1 (relative stereo) [Compound A-2, N-{2-[3,5-dichloro-2-pyridinyl]cis-cyclohexyl}1-methyl-3-(difluoromethyl)-1H-pyrazole-4-carboxamide]
- protection, % of efficacy (good, at least 70%): at least 70%
